Source: patent publication US6492344B1, “Syndecan enhancer element and syndecan stimulation of cellular differentiation” (Biotie Therapies Corp., priority 1993, dated 2002)

How the values were obtained:
[1] = tested on: syndecan-1 gene; assay: Nuclear run-off of syndecan-1 transcription in 3T3NIH cells; format: cell-based, mouse
Method: The same cells were exposed to 10 ng/ml of FGF-2 for 4 hours and 24 hours with or without exposure to FGF (Control) followed by the isolation of nuclei for the run-off experiment. c-jun or nur transcription was used as a positive control and β-actin as a loading control. In nuclei isolated 4 hours after FGF exposure the level of transcription of the syndecan-1 gene was elevated as were the levels for c-jun and nur as positive controls.

[2] = tested on: 3T3NIH cells; assay: 125-IdU incorporation (DNA synthesis) assay in 3T3NIH cells; format: cell-based, mouse; details: pFiRE transfected 3T3NIH cells; 10 ng/ml growth factor (2 ng/ml TGF-β) or 5% FCS
Text: Effect of Various Growth Factors on Enhancer Activation in NIH3T3 Cells. Plasmid pFiRE was transfected into 3T3NIH cells as described, supra. The cells were starved in DMEM medium supplemented with 5% fetal calf serum to about 70% confluence. Fetal calf serum was then replaced with 2% carboxy-methyl-Sephadex eluted fetal calf serum (CMS) 12 hrs before adding the growth factors. Various growth factors in the same medium, 5% fetal calf serum (FCS) supplemented medium or a control containing the medium, without any added growth factors were incubated with the transfected cells for 2 days, and CAT activity was measured. The effect of 10 ng/ml of FGF-2, FGF-1, FGF-4, FGF-7 (KGF), EGF, IGF1, TGFα, IFNγ, and PDGF and 2 ng/ml TGF-β were tested. The human recombinant growth factors were purchased from Peprotech (FGF-1, -2, and -7), Boehringer (FGF-2) or from Calbiochem (PDGF) TGF-β was purchased from Sigma. The effect of the added growth factors and FCS on DNA synthesis was also tested by a 125-IdU incorporation assay. This cell proliferation assay was carried out by incubating cells for 4-6 hrs with 0.25 μCi/ml 5-[^125I]iodo-2′-deoxyuridine (IdU, Amersham), washed several times with PBS and solubilized in 1 M NaOH. Radioactivity was measured using a gamma counter (Wallac).

[3] = tested on: MCA3D cells; assay: Cell proliferation of MCA3D keratinocytes; format: cell-based; details: MCA3D mouse keratinocytes

FGF-2: Basic fibroblast growth factor (FGF-2 or bFGF); recombinant human
transcription of syndecan-1 (run-off) ([1]; after 24 hours of 10 ng/ml FGF-2): not detectable
level of transcription of the syndecan-1 gene (run-off) ([1]; nuclei isolated 4 hours after 10 ng/ml FGF exposure): elevated
DNA synthesis / cell proliferation (125-IdU incorporation) [2]: significant increase in DNA synthesis
cell proliferation [3]: stimulated cell proliferation
